Converted amounts (≈) assume the structure as drawn.
These compounds were tested on Helicobacter pylori (assay: Antimicrobial activity against Helicobacter pylori DSMZ 4867).
Assay type: functional

| SMILES | MIC [µg/mL] |
| --- | --- |
| CC(C)=CCC/C(C)=C/COc1ccc2ccc(=O)oc2c1 [AURAPTENE] | 50 (≈ 168 µM) |
| CN(C)[C@@H]1C(O)=C(C(N)=O)C(=O)[C@@]2(O)C(O)=C3C(=O)c4c(O)cccc4[C@@](C)(O)[C@H]3C[C@@H]12 [TETRACYCLINE] | 4 (≈ 9 µM) |
| CC(C)=CCC/C(C)=C/COc1ccc(/C=C/C(=O)O)cc1 | > 200 |
| COc1cc(C(=O)O)ccc1OCC=C(C)C | 50 (≈ 212 µM) |
| COc1cc(/C=C/C(=O)O)ccc1OC/C=C(\C)CCC=C(C)C | > 200 |
| Cc1ncc([N+](=O)[O-])n1CCO [METRONIDAZOLE] | > 200 |
| CC1(C)S[C@@H]2[C@H](NC(=O)[C@H](N)c3ccc(O)cc3)C(=O)N2[C@H]1C(=O)O [AMOXICILLIN] | 0.781 (≈ 2.14 µM) |
| CC[C@H]1OC(=O)[C@H](C)[C@@H](O[C@H]2C[C@@](C)(OC)[C@@H](O)[C@H](C)O2)[C@H](C)[C@@H](O[C@@H]2O[C@H](C)C[C@H](N(C)C)[C@H]2O)[C@](C)(OC)C[C@@H](C)C(=O)[C@H](C)[C@@H](O)[C@]1(C)O [CLARITHROMYCIN] | 1.25 (≈ 1.67 µM) |
| CC(C)=CCOc1ccc(C(=O)O)cc1 [VALENCIC ACID] | 100 (≈ 485 µM) |
| COc1cc(C(=O)O)ccc1OC/C=C(\C)CCC=C(C)C | > 200 |
| COc1cc(/C=C/C(=O)O)ccc1OCC=C(C)C [BOROPINIC ACID] | 1.62 (≈ 6.18 µM) |
